Measurements taken from US8003669B2, “Remedy for sleep disturbance” (Mitsubishi Tanabe Pharma Corporation, priority 2002, dated 2011).

Experiments:
[1] = test system: rats; assay: Antagonistic action of the ORL-1 receptor antagonist on the phase advancement by the ORL-1 receptor agonist; format: in vivo, rat; details: constant dark, oral
[2] = target: human ORL-1 receptor (Homo sapiens, UniProt P41146); assay: Agonist action: inhibition of forskolin-stimulated cAMP elevation in HEK293 cells; format: cell-based; details: HEK293 cells expressing human ORL-1 receptor, forskolin 1 μmol/L
[3] = target: T1, ORL-1 receptor (Rattus norvegicus, UniProt P35370); assay: ORL-1 receptor binding test ([3H]-nociceptin); details: receptor prepared from cerebral cortex of rat
T1 construct: a standard product of the receptor prepared from cerebral cortex of rat; from tissue; host or cells: rat cerebral cortex
T1 sequence (P35370 whole entry): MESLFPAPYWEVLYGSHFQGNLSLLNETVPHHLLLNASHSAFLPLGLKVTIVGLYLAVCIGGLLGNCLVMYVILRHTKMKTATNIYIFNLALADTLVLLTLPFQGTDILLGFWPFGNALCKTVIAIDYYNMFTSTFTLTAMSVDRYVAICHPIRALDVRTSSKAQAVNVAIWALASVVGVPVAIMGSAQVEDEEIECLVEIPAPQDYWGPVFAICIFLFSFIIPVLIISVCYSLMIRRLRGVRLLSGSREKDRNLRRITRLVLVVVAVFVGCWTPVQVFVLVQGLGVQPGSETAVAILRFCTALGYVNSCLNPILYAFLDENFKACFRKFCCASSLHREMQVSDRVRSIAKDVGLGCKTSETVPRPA

Chain of human ORL-1 receptor (P41146 whole entry): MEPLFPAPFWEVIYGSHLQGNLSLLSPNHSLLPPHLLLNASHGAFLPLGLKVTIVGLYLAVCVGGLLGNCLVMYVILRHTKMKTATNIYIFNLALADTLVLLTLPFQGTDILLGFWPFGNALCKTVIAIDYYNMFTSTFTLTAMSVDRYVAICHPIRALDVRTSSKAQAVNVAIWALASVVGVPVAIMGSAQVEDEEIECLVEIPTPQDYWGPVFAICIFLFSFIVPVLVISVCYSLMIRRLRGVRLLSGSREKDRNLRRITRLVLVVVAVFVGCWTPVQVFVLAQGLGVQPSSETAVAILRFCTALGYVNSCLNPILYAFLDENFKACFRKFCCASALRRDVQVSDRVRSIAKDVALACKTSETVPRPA

In the case of `CCc1ccc(OCc2ccccc2C(=O)Nc2ccc3nc(C)cc(N)c3c2)cc1.Cl` [compound D, N-(4-amino-2-methylquinolin-6-yl)-2-(4-ethylphenoxymethyl)benzamide hydrochloride], the “phase shift for the ORL-1 receptor antagonist alone” value [1] is reported as “no phase shift was observed”, the “inhibition of cAMP production (ORL-1 receptor agonistic activity)” value [2] is reported as “did not inhibit cAMP production” and the IC50 ([3]; 25° C., 20 minutes, read-out: IC50 value, inhibition of the binding of [3H]-nociceptin) is reported as 500 nM. It also gave a Ki ([3]; Ki=IC50/(1+L/Kd), read-out: Ki value, inhibition of the binding of [3H]-nociceptin) of 60.6 nM.
